Experimental data as given in patent publication US20070010466A1 (priority 2005, published 2007).
“Also recorded” adds a separate entry of the source.

Experiments:
[1] = clinical trials; cited from earlier work
[2] = target: T1, P-gp function on circulating natural killer (NK) cells and leukemic blasts (Homo sapiens, UniProt P08183); assay: cellular P-gp function, DiOC2 accumulation assay with flow cytometry, in AML patients; format: in vivo
T1 construct: Pharmacodynamic assessments of cellular P-gp function were conducted using an accumulation assay with DiOC2 and flow cytometry; endogenous in cells; host or cells: circulating NK cells and leukemic blasts from AML patients
T1 sequence (P08183 whole entry): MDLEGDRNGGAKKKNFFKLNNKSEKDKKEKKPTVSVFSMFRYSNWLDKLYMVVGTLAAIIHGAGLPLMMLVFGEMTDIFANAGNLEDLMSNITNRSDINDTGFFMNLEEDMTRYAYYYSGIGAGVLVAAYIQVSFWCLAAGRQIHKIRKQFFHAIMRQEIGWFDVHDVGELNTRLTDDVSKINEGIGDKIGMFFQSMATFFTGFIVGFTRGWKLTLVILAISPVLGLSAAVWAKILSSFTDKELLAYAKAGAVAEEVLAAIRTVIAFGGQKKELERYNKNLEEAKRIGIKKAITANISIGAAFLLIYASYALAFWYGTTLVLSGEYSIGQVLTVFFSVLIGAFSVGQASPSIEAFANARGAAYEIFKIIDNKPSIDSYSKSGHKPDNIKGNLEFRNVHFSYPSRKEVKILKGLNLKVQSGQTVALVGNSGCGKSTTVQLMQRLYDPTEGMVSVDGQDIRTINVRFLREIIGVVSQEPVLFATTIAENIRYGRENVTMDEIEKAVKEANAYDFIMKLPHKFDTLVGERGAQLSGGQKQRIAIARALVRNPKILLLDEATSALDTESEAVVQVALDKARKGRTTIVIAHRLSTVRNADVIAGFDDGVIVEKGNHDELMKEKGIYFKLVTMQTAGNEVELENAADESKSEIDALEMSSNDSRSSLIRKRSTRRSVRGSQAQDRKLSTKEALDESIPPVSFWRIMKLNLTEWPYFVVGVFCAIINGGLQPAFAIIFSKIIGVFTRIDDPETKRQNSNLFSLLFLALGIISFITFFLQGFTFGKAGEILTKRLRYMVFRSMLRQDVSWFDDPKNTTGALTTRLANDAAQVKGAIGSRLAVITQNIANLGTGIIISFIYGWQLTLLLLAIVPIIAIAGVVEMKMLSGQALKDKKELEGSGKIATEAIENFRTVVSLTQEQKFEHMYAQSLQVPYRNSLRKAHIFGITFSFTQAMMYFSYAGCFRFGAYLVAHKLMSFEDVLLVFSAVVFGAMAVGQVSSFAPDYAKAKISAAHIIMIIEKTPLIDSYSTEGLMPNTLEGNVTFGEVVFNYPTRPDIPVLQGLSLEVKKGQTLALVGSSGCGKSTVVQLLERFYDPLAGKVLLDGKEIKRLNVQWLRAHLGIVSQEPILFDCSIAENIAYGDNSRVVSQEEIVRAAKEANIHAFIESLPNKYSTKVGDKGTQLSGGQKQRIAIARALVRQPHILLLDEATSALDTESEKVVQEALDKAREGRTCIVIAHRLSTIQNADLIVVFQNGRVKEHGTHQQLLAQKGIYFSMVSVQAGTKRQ
Experimental: Cytarabine was also administered (100 mg/m^2/day) starting after the first dose of daunorubicin as a continuous intravenous infusion on days 1-7. Blood samples were taken at intervals for pharmacokinetic and pharmacodynamic studies. Pharmacokinetic drug determinations were conducted by HPLC. Pharmacodynamic assessments of cellular P-gp function were conducted using an accumulation assay with DiOC2 and flow cytometry. P-gp function was assessed on circulating natural killer (NK) cells and leukemic blasts. […] Means of 3 patients for each time point are shown.

[3] = preclinical models, several oncolytics; cited from earlier work

SMILES | pharmacokinetic interaction with coadministered cytotoxic agents [1] | continued inhibition of P-gp functional activity after infusion was halted ([2]; after 72 hour infusion) | time to potent inhibition of P-gp function after start of infusion ([2]; both NK cells and leukemic blasts, 700 mg/day continuous iv infusion) | pharmacokinetic interaction with co-administered chemotherapy [3]
C/C=C/C[C@@H](C)C(=O)[C@H]1C(=O)N[C@@H](C(C)C)C(=O)N(C)CC(=O)N(C)[C@@H](CC(C)C)C(=O)N[C@@H](C(C)C)C(=O)N(C)[C@@H](CC(C)C)C(=O)N[C@@H](C)C(=O)N[C@H](C)C(=O)N(C)[C@@H](CC(C)C)C(=O)N(C)[C@@H](CC(C)C)C(=O)N(C)[C@@H](C(C)C)C(=O)N1C [valspodar] | significant pharmacokinetic interactions |  |  | 
O[C@@H](COc1cccc2ncccc12)CN1CCN([C@@H]2c3ccccc3[C@@H]3[C@H](c4ccccc42)C3(F)F)CC1 [zosuquidar] |  | at least 12 hours | ≤ 2 h | no pharmacokinetic interaction; also recorded: minimal pharmacokinetic (PK) interactions
